According to EPA's ToxRefDB 2:

Legend:
rat [1] = details: Multigenerational reproductive toxicity study, sprague dawley, Inhalation, Whole-Body, dose end: 2 generation
rat [2] = details: Prenatal developmental toxicity study, sprague dawley, Inhalation, Whole-Body, dose end: 19 GD, group: maternal
dog = details: Chronic toxicity, beagle, Oral, Capsule, dose end: 52 week
mouse = details: Carcinogenicity, cd1, Oral, Feed, dose end: 18 month, group: systemic
rat [3] = details: Combined chronic toxicity/carcinogenicity, sprague dawley, Oral, Feed, dose end: 24 month
rat [4] = details: Prenatal developmental toxicity study, sprague dawley, Oral, Gavage/Intubation, dose end: 15 GD
[5] = group: offspring, systemic / organ weight / kidney / nos + systemic / in life observation / body weight / offspring (pup) weight + developmental / …
[6] = group: parental, systemic / pathology gross / lung / discolored
[7] = group: reproductive, reproductive / offspring survival early / birth index / live birth index + reproductive / reproductive performance / estrous cycle / corpora…
[8] = systemic / in life observation / body weight / body weight gain + systemic / in life observation / body weight / body weight + systemic / in…
[9] = group: cholinesterase, cholinesterase / cholinesterase / cholinesterase / plasma cholinesterase (che)
[10] = group: cholinesterase, cholinesterase / cholinesterase / cholinesterase / plasma cholinesterase (che) + cholinesterase / cholinesterase / cholinesterase / brain …
[11] = group: systemic, systemic / in life observation / clinical signs / tremors + systemic / in life observation / clinical signs / vomitting
[12] = systemic / in life observation / body weight / body weight + systemic / in life observation / food consumption / food consumption
[13] = group: systemic, systemic / hematology / erythrocyte (rbc) count differential / erythrocyte (rbc) + systemic / hematology / hematocrit (hct) / hematocrit (…
[14] = group: developmental, developmental / developmental malformation / bone / incomplete ossification
[15] = group: developmental, developmental / developmental malformation / bone / incomplete ossification + developmental / developmental malformation / bone / …
[16] = group: maternal, systemic / in life observation / food consumption / food consumption + systemic / in life observation / body weight / body weight + systemic…

## CI [Methyl iodide]
Rat [1]; [5]
  LEL: 5 ppm
  LOAEL: 5 ppm
  NEL: < 5 ppm
  NOAEL: < 5 ppm
Rat [1]; [6]
  LEL: 5 ppm
  LOAEL: 5 ppm
  NEL: < 5 ppm
  NOAEL: < 5 ppm
Rat [1]; [7]
  LEL: 50 ppm
  LOAEL: 50 ppm
  NEL: 20 ppm
  NOAEL: 20 ppm
Rat [2]; systemic / in life observation / body weight / body weight gain
  LOAEL: 60 ppm
Rat [2]; [8]
  LEL: 60 ppm
  NEL: 20 ppm
  NOAEL: 20 ppm

## CCOP(=S)(OCC)SCSCC [Phorate]
dog; [9]
  LEL: 0.05 mg/kg/day
  LOAEL: 0.05 mg/kg/day
dog; [10]
  NEL: 0.01 mg/kg/day
  NOAEL: 0.01 mg/kg/day
dog; group: systemic, systemic / in life observation / clinical signs / tremors + systemic / in life observation / body weight / body weight gain
  LOAEL: 0.25 mg/kg/day
dog; [11]
  NEL: 0.005 mg/kg/day
  NOAEL: 0.05 mg/kg/day
dog; group: systemic, systemic / in life observation / clinical signs / vomitting
  LEL: 0.01 mg/kg/day
mouse; systemic / in life observation / body weight / body weight
  LOAEL: 0.8 mg/kg/day
mouse; [12]
  LEL: 0.8 mg/kg/day
  NEL: 0.4 mg/kg/day
  NOAEL: 0.4 mg/kg/day
Rat [3]; [9]
  LEL: 0.05 mg/kg/day
  LOAEL: 0.05 mg/kg/day
  NEL: < 0.05 mg/kg/day
  NOAEL: < 0.05 mg/kg/day
Rat [3]; [13]
  LEL: 0.3 mg/kg/day
  LOAEL: > 0.3 mg/kg/day
  NEL: 0.15 mg/kg/day
  NOAEL: ≥ 0.3 mg/kg/day
Rat [4]; [14]
  LEL: 0.1 mg/kg/day
  NEL: < 0.1 mg/kg/day
Rat [4]; [15]
  LOAEL: 0.4 mg/kg/day
  NOAEL: 0.3 mg/kg/day
Rat [4]; group: maternal, systemic / in life observation / food consumption / food consumption
  LOAEL: 0.2 mg/kg/day
Rat [4]; [16]
  LEL: 0.4 mg/kg/day
  NEL: 0.3 mg/kg/day
  NOAEL: 0.1 mg/kg/day
